Source: patent US9284283B2, “Macrocyclic compounds for modulating IL-17” (ENSEMBLE THERAPEUTICS CORPORATION, priority 2012, dated 2016)

Tests used:
IL17A = target: T1, IL17A (Homo sapiens, UniProt Q16552); test: Surface Plasmon Resonance (SPR) analysis of compound interactions with IL17A; conditions: SPR binding to IL17A
T1 sequence (Q16552 24-155): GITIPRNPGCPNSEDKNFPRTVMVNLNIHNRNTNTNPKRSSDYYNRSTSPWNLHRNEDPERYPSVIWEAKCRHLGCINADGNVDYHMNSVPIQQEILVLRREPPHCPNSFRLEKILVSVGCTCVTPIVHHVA
In short: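 His-tagged IL17A captured on a Ni-NTA chip; five 2- or 3-fold compound dilutions from 50 μM injected for 180 s, 120 s dissociation, in HEPES-saline buffer with 0.5% DMSO. Baseline-subtracted sensorgrams fitted 1:1 for ka, kd and KD; Kd also derived from binding extent per concentration.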

[1] = test system: IL-17-induced GROα secretion from HT-29 cells; test: HT-29 cellular assay (IL-17-induced GROα secretion); format: cell-based; conditions: Homo sapiens
Method: To test the ability of a compound of the invention to neutralize or antagonize IL-17 bioactivity, the following cell-based assay was used. IL-17 can stimulate epithelial cells and other cells to secrete GROα. The ability of a compound of the invention to neutralize IL-17-induced GROα secretion from the human colorectal adenocarcinoma epithelial cell line HT-29 is tested in this assay.
HT-29 cells (human colorectal adenocarcinoma epithelial cells, ATCC #HTB-38), were maintained in culture/assay medium in tissue culture-treated flasks using standard techniques. HT-29 cells were grown in tissue culture flasks until they were 50-80% confluent on the day before the assay. The day before the assay, the cells were detached from the culture flasks with trypsin+EDTA. The trypsin was inactivated with complete assay medium. HT-29 cells were then centrifuged at 500×g for 5 minutes at room temperature. The cell pellet was then re-suspended in Defined Keratinocyte SFM (Invitrogen #10766019)+10% FCS and 50,000 HT-29 cells (in 100 μl) were added to each treatment well of the 96-well plates. The 96-well plates were placed in a tissue culture incubator (37° C., 5% CO2) overnight. The next day, the media was removed from the cells and the cells were washed twice with Defined Keratinocyte SFM. In a separate 96-well plate, compounds to be tested were serially diluted in Defined Keratinocyte SFM and run in triplicate in 100 μL total volume. To these compound samples were then added 100 μL of human IL-17 at a concentration of 20 ng/mL in Defined Keratinocyte SFM for serum-free assays. 150 μL of the compound/IL-17 mixture was then added to the cells from which the media has previously been removed. The cells were grown for 48 hours in Defined Keratinocyte SFM in a tissue culture incubator (37° C., 5% CO2).
At the end of the incubation, the plates are centrifuged (500×g for 5 minutes at room temperature), and the cell culture media is transferred to polypropylene 96-well plates. The supernatant was used neat in the ELISA. GROα levels are measured with a GROα sandwich ELISA (R+D Systems DuoSet #DY275E), as per the manufacturer's instructions. The ELISA plates were previously coated with mAb 275 (R+D Systems) at 4 μg/mL. GROα is detected using biotinylated goat anti-human GROα (R+D Systems BAF275) at 200 ng/mL using TMB as a substrate. At the end of the ELISA reactions, plates are read at 450 nm on a microplate reader and compared to a standard calibration curve.

[2] = target: T2, recombinant human IL17a (binding to its receptor IL17R) (Homo sapiens, UniProt Q16552); test: IL-17 competition ELISA I (IL17a coated, IL17R/Fc binding)
T2 construct: purchased R&D Systems 317-ILB (IL17a); 177-IR (IL17R/Fc)
T2 sequence (Q16552 20-155 limits assumed): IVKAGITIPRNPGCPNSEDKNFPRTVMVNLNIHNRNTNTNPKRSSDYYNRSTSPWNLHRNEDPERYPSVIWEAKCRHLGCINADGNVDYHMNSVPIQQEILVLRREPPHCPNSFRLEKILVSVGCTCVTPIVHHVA
In short: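 Plates coated with 20 nM recombinant human IL17a received compound dilutions and 12 nM IL17R/Fc (final) for 30 min at room temperature. Bound receptor was detected with HRP anti-human Fc and TMB, read at 450 nm. IC50 came from a 4-parameter logistic fit between no-competitor and blank controls.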

[3] = target: T3, biotinylated human IL-17 (binding to IL17R/Fc) (Homo sapiens, UniProt Q16552); test: IL-17 competition ELISA II (captured IL17R/Fc, biotinylated IL-17)
T3 construct: purchased R&D Systems 317-ILB (IL-17, biotinylated); 177-IR (IL17R/Fc)
T3 sequence (Q16552 20-155 limits assumed): T2 sequence (Q16552 20-155 limits assumed)
In short: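 Anti-human IgG-coated plates captured IL17R/Fc (10 nM), then compound (5-fold dilutions from 1 μM) and biotinylated human IL-17 (20 nM stock) were added for 30 min at room temperature in PBST. Bound IL-17 detected by streptavidin-HRP/TMB at 450 nm. IC50 from 4-parameter logistic fit between no-competitor and blank controls.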

[4] = test system: IL-17A induced secretion of IL-6 in primary human RASF cells; test: Inhibition of IL17A induced secretion of IL6 in human rheumatoid arthritis synovial fibroblast (RASF) cells; format: cell-based; conditions: Homo sapiens, Fibroblast
In short: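 Primary RASF cells (passage 2-8) stimulated 20 h at 37 °C with rhIL-17A (30 ng/mL) pre-incubated 1 h with compound (final 0.03-25 μM, 0.25% DMSO). Supernatant IL-6 measured by ELISA, normalized to WST1 viability; triplicates.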

DNFB-treated BALB/c mice = test: Murine model of delayed hypersensitivity (DNFB-induced ear edema); format: in vivo, mouse; conditions: po; for Reduction in edema (%): ear weight 24 h after DNFB challenge; for CXCL1 Reduction (%) / IFNγ Reduction (%) / IL6 Reduction (%): plasma
Method: We used a murine model of fluorodinitrobenzene (DNFB)-induced ear edema to test the anti-inflammatory activity of both orally dosed and intraperitoneally dosed exemplary compounds of the invention. BALB/c mice (Harlan Sprague-Dawley, Inc., male, 6-8 weeks old) were topically treated on their shaved abdomen with 30 μL of 0.5% 1-fluoro-2,4-dinitrobenzene (DNFB) (4:1 acetone:olive oil) once on Day 0 and once on Day 1.
For oral dosing (“PO”), exemplary compounds of the invention were either suspended at 3 mg/mL in 20% Cremophor EL (Sigma) (20:80; Cremophor:water) or dissolved at 1 mg/mL or 3 mg/mL in D-α-tocopherol polyethylene glycol 1000 succinate (TPGS; Sigma)/PEG-400/water (20:60:20). For intraperitoneal dosing (“IP”), exemplary compounds of the invention were dissolved in DMSO at a concentration of 5 mg/mL. On day 7, the test compound was administered (PO at either 10 mg/kg or 30 mg/kg; IP at 1, 3, or 10 mg/kg) to DNFB-treated mice. Commercially available anti-mouse IL-17A (BioLegend) administered intraperitoneally at 5 mg/kg in PBS was used as a positive control. Thirty minutes later, 20 μL of 0.2% DNFB was applied to the right ear of animals and vehicle ([…]:olive oil) was applied to the left ear. One and four hours after DNFB challenge, a subset of mice was exsanguinated and plasma prepared from the blood. Twenty-four hours after challenge, the remaining mice were euthanized, and their ears were removed and weighed to determine the amount of edema. Plasma was assayed for interleukin-6, TNF-α, CXCL1, and interferon-γ concentrations using commercially-available assays.

| SMILES | Kd (IL17A) [µM] | IC50 [1] [µM] | also measured |
| --- | --- | --- | --- |
| COC(=O)[C@H]1CCCCNC(=O)CCCNC(=O)[C@@H](Cc2ccc(NC(=O)[C@H](Cc3ccccc3F)NC(=O)Cc3ccccc3)cc2)NC(=O)CC2(CCCC2)CC(=O)N1 [Compound 107] | 0.1 to 1 | > 10 | – |
| O=C1CNC(=O)[C@@H](Cc2ccc(NC(=O)[C@H](Cc3ccccc3Cl)NC(=O)Cc3ccccc3)cc2)NC(=O)CC2(CCCC2)CC(=O)N[C@@H](C(=O)O)CCCCN1 [Compound 180] | < 0.1 | < 1 | IC50 [2]: < 0.1 µM |
| COC(=O)[C@H]1CCCCNC(=O)CNC(=O)[C@@H](Cc2ccc(NC(=O)[C@H](Cc3ccccc3Cl)NC(=O)c3ccccc3)cc2)NC(=O)CC2(CCCC2)CC(=O)N1 [Compound 142] | < 0.1 | 1 to 10 | – |
| COC(=O)[C@H]1CCCCNC(=O)CNC(=O)[C@@H](Cc2ccc(NC(=O)[C@H](Cc3ccccc3Cl)NC(=O)Cc3ccccc3)cc2)NC(=O)CC2(CCCC2)CC(=O)N1 [Compound 141] | < 0.1 | 1 to 10 | – |
| COC(=O)[C@@H]1CCCCNC(=O)CNC(=O)[C@@H](Cc2ccc(NC(=O)[C@H](Cc3ccccc3F)NC(=O)Cc3ccccc3)cc2)NC(=O)CC2(CCCC2)CC(=O)N1 [Compound 108] | < 0.1 | 1 to 10 | – |
| O=C1CC2(CCCC2)CC(=O)N[C@H](Cc2ccc(NC(=O)[C@H](Cc3ccccc3Cl)NC(=O)C(F)(F)c3ccccc3)cc2)C(=O)NCCOCCOCCN1 [Compound 475] | – | – | IC50 [3]: < 0.1 µM; IC50 [4]: 0.1 to 1 µM; Reduction in edema (%) (DNFB-treated BALB/c mice; 10 mg/kg): 19.2%; CXCL1 Reduction (%) (DNFB-treated BALB/c mice; 10 mg/kg): 61.4%; IFNγ Reduction (%) (DNFB-treated BALB/c mice; 10 mg/kg): 11.3%; IL6 Reduction (%) (DNFB-treated BALB/c mice; 10 mg/kg): 29.7%; Reduction in edema (%) (DNFB-treated BALB/c mice; 30 mg/kg): 49.5%; CXCL1 Reduction (%) (DNFB-treated BALB/c mice; 30 mg/kg): 63.0%; IFNγ Reduction (%) (DNFB-treated BALB/c mice; 30 mg/kg): 45.0%; IL6 Reduction (%) (DNFB-treated BALB/c mice; 30 mg/kg): 51.9% |
| O=C1CNC(=O)[C@@H](Cc2ccc(NC(=O)[C@H](Cc3ccccc3F)NC(=O)Cc3ccccc3)cc2)NC(=O)CC2(CCCC2)CC(=O)N[C@H](C(=O)O)CCCCN1 [Compound 177] | < 0.1 | 1 to 10 | – |
| COC(=O)N[C@@H](Cc1ccccc1Cl)C(=O)Nc1ccc(C[C@H]2NC(=O)CC3(CCCC3)CC(=O)NCCOCCOCCNC2=O)cc1 [Compound 465] | – | – | IC50 [3]: < 0.1 µM; Reduction in edema (%) (DNFB-treated BALB/c mice; 30 mg/kg): 23.5%; IFNγ Reduction (%) (DNFB-treated BALB/c mice; 30 mg/kg): 47.4%; IL6 Reduction (%) (DNFB-treated BALB/c mice; 30 mg/kg): 42.5% |

Second part, led by results:

| Kd (IL17A) [µM] | IC50 [1] [µM] | SMILES | also measured |
| --- | --- | --- | --- |
| 0.1 to 1 | > 10 | COC(=O)[C@@H]1CCCCNC(=O)CCCNC(=O)[C@@H](Cc2ccc(NC(=O)[C@H](Cc3ccccc3Cl)NC(=O)c3ccccc3)cc2)NC(=O)CC2(CCCC2)CC(=O)N1 [Compound 113] | – |
| 0.1 to 1 | 1 to 10 | COC(=O)[C@@H]1CCCCNC(=O)CCNC(=O)[C@@H](Cc2ccc(NC(=O)[C@H](Cc3ccccc3F)NC(=O)Cc3ccccc3)cc2)NC(=O)CC2(CCCC2)CC(=O)N1 [Compound 109] | – |
| – | 1 to 10 | COC(=O)[C@@H]1CCCCNC(=O)CCCNC(=O)[C@@H](Cc2ccc(NC(=O)[C@H](Cc3ccccc3Br)NC(=O)Cc3ccccc3)cc2)NC(=O)CC2(CCCC2)CC(=O)N1 [Compound 120] | – |
| < 0.1 | 1 to 10 | COC(=O)[C@@H]1CCCCNC(=O)CCCNC(=O)[C@@H](Cc2ccc(NC(=O)[C@H](Cc3ccccc3Cl)NC(=O)Cc3ccccc3)cc2)NC(=O)CC2(CCCC2)CC(=O)N1 [Compound 112] | – |
| < 0.1 | 1 to 10 | O=C1CNC(=O)[C@@H](Cc2ccc(NC(=O)[C@H](Cc3ccccc3Br)NC(=O)Cc3ccccc3)cc2)NC(=O)CC2(CCCC2)CC(=O)NCCCCCN1 [Compound 187] | IC50 [2]: < 0.1 µM |
| 0.1 to 1 | > 10 | COC(=O)[C@@H]1CCCCNC(=O)CCCCNC(=O)[C@@H](Cc2ccc(NC(=O)[C@H](Cc3ccccc3F)NC(=O)Cc3ccccc3)cc2)NC(=O)CC2(CCCC2)CC(=O)N1 [Compound 110] | – |
| < 0.1 | 1 to 10 | O=C1CNC(=O)[C@@H](Cc2ccc(NC(=O)[C@H](Cc3c(F)cccc3F)NC(=O)Cc3ccccc3)cc2)NC(=O)CC2(CCCC2)CC(=O)NCCCCCN1 [Compound 184] | – |
